Results on six compounds are retold here after ChEMBL document CHEMBL1201862, “PubChem BioAssay data set” (2004).

Molecules are shown by their SMILES.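 Cells were grown in 96-well plates and exposed to each compound for 48 hours at five concentrations; endpoints were interpolated linearly between bracketing concentrations, or set to the highest concentration if not reached. GI50 marks 50% less growth.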 Activity calls are given as the source filed them. No stated cut-off is given here; in the data, active = GI50 up to about 1.1 µM and inactive = higher. Where a SMILES comes first, the peptide text is derived from it. The star is where a group is joined. Boc = CC(C)(C)OC(=O)* Some results are limits rather than exact numbers.

Test systems include ACHN; HOP-62; CCRF-CEM; SW-620; SN12C; Malme-3M; PC-3; SF-539; EKVX; IGROV-1; LOX IMVI; M14; RXF 393; NCI-H23; SK-OV-3; Hs-578T; UO-31; MCF7; HT-29; MOLT-4.
Assay in all cases: NCI-60 cell line screen, 48 h

Consider `C[C@@]12C[C@@H](c3ccccc3O1)N1CCCSC1=N2`, for which the GI50 in the assay on ACHN, with HOP-62, in the assay on CCRF-CEM, in the assay on SW-620, in the assay on SN12C and in the assay on Malme-3M was > 100 µM (inactive) throughout. In addition, the GI50 in the assay with PC-3, in the assay on SF-539, in the assay with EKVX, with IGROV-1, in the assay with LOX IMVI and with M14 was > 100 µM (inactive) in each case. For the same compound, the GI50 in the assay on RXF 393, with NCI-H23, in the assay with SK-OV-3, in the assay with Hs-578T, in the assay on UO-31 and in the assay with MCF7 was > 100 µM (inactive) in each case. Also, the GI50 in the assay with HT-29 and with MOLT-4 was > 100 µM (inactive) throughout.

Regarding `Brc1ccc2[nH]cc(-c3csc(-c4c[nH]c5ccc(Br)cc45)n3)c2c1`, the GI50 was 1.93 µM (inactive) in the assay on ACHN; 3.25 µM (inactive) in the assay with HOP-62; 1.92 µM (inactive) in the assay with CCRF-CEM; 1.84 µM (inactive) in the assay with SW-620; 2.83 µM (inactive) with SN12C; 1.56 µM (inactive) in the assay on Malme-3M. Also, the GI50 with PC-3 was 1.97 µM (inactive); with SF-539, 1.56 µM (inactive); in the assay with EKVX, 1.48 µM (inactive); in the assay on IGROV-1, 1.58 µM (inactive); with LOX IMVI it was 1.69 µM (inactive); in the assay with M14, 1.53 µM (inactive). The GI50 is 2.14 µM (inactive) in the assay with RXF 393; 2.27 µM (inactive) in the assay with NCI-H23; 2.5 µM (inactive) in the assay on SK-OV-3; 3.79 µM (inactive) with Hs-578T; 2.42 µM (inactive) with UO-31; 2.7 µM (inactive) in the assay with MCF7. In addition, the GI50 in the assay with HT-29 was 1.7 µM (inactive); in the assay on MOLT-4 it was 1.63 µM (inactive).

On to `CN1CCN(c2c(Cl)cc(Cl)c3[nH]c4ccccc4c(=O)c23)CC1`, for which the GI50 in the assay with ACHN was 2.9 µM (inactive); with HOP-62, 6.15 µM (inactive); in the assay on CCRF-CEM, 0.67 µM (active); with SW-620, 3.82 µM (inactive); in the assay on SN12C it was 6.12 µM (inactive); with Malme-3M it was 1.96 µM (inactive). For the same compound, the GI50 with PC-3 is 6.38 µM (inactive); in the assay with SF-539 it was 3.94 µM (inactive); with EKVX it was 10.5 µM (inactive); in the assay on IGROV-1, 4.46 µM (inactive); in the assay on LOX IMVI it was 3.64 µM (inactive); in the assay with M14, 6.01 µM (inactive). Moreover, the GI50 in the assay with RXF 393 was 12.6 µM (inactive); in the assay with NCI-H23, 8.87 µM (inactive); in the assay on SK-OV-3 it was 11.1 µM (inactive); with Hs-578T, 4.8 µM (inactive); in the assay on UO-31, 4.29 µM (inactive); in the assay on MCF7, 1.43 µM (inactive). Moreover, the GI50 with HT-29 is 3.22 µM (inactive); with MOLT-4 it was 1.18 µM (inactive).

For the compound `C=CCSC1=N/C(=C\c2ccccc2)C(=O)N1CC=C`, the GI50 with ACHN is 41.8 µM (inactive); in the assay with HOP-62 it was 99.1 µM (inactive); in the assay with CCRF-CEM, 22.9 µM (inactive); in the assay with SW-620, 49.7 µM (inactive); with SN12C, 36.2 µM (inactive); in the assay with Malme-3M, 47 µM (inactive). For the same compound, the GI50 was 24.8 µM (inactive) in the assay on PC-3; 84.1 µM (inactive) with SF-539; 22.5 µM (inactive) in the assay with EKVX; > 100 µM (inactive) in the assay with IGROV-1; 26.4 µM (inactive) in the assay on LOX IMVI; 67.9 µM (inactive) in the assay on M14. Also, the GI50 in the assay with RXF 393 is 20.2 µM (inactive); in the assay with NCI-H23 it was 56 µM (inactive); with SK-OV-3, > 71.6 µM (inactive); in the assay with Hs-578T it was 43 µM (inactive); in the assay on UO-31 it was 40.5 µM (inactive); in the assay on MCF7 it was 27.8 µM (inactive). Also, the GI50 with HT-29 is 23.6 µM (inactive); with MOLT-4, 2.7 µM (inactive).

As to `Cc1cccc2c(N)c3cccc(C(=O)NCCCNCCN)c3nc12`, the GI50 was 10.5 µM (inactive) in the assay on ACHN; 3.53 µM (inactive) in the assay on HOP-62; 1.46 µM (inactive) in the assay with CCRF-CEM; 8.43 µM (inactive) with SW-620; 0.121 µM (active) in the assay on SN12C; 5.57 µM (inactive) in the assay with Malme-3M. The GI50 in the assay on PC-3 was 14.3 µM (inactive); in the assay on SF-539, 2.17 µM (inactive); in the assay with EKVX, 13.8 µM (inactive); with IGROV-1, 4.83 µM (inactive); with LOX IMVI, 7.11 µM (inactive); in the assay on M14, 14.1 µM (inactive). For the same compound, the GI50 in the assay on RXF 393 was 3.4 µM (inactive); in the assay with NCI-H23, 1.01 µM (active); in the assay on SK-OV-3, 23.2 µM (inactive); with Hs-578T, 0.23 µM (active); with UO-31, 19 µM (inactive); with MCF7, 0.679 µM (active). The GI50 in the assay with HT-29 is 3.13 µM (inactive); in the assay with MOLT-4, 0.155 µM (active).

As to `CC(C)(C)OC(=O)NCC(=O)NCC(=O)NCC(=O)NCC(=O)O` (Boc-GGGG-OH), the GI50 in the assay with ACHN, in the assay with HOP-62, in the assay with CCRF-CEM, in the assay with SW-620, in the assay on SN12C and with Malme-3M was > 100 µM (inactive) each time. Besides, the GI50 in the assay with PC-3, with SF-539, with EKVX, in the assay with IGROV-1, with LOX IMVI and in the assay on M14 was > 100 µM (inactive) in each case. For the same compound, the GI50 was > 100 µM (inactive) in the assay on RXF 393; > 100 µM (inactive) in the assay on NCI-H23; > 100 µM (inactive) in the assay on SK-OV-3; 66.1 µM (inactive) with Hs-578T; > 100 µM (inactive) in the assay on UO-31; > 100 µM (inactive) in the assay with MCF7. For the same compound, the GI50 in the assay on HT-29 and in the assay with MOLT-4 was > 100 µM (inactive) in each case.
